From patent US6342219B1 (Board of Regents, The University of Texas System, priority 1999, dated 2002)

What was measured:
[1] = test system: guinea pig VEGF in line 10 guinea pig tumor sections; test: Immunohistochemistry, endothelial cell staining, guinea pig Line 10 tumor; type: binding; design: key: −, negative; +/−, very weak; 1+, weak; 2+, moderate; 3+, strong; 4+, very strong; details: acetone fixed frozen sections
Protocol: (§1) Guinea pig line 10 hepatocellular carcinoma tumor cells (obtained from Dr. Ronald Neuman, NIH, Bethesda, Md.) were grown in strain 2 guinea pigs (NCI, Bethesda, Md.). The human tumors NCI-H358 non-small cell lung carcinoma (NSCLC), NCI-H460 NSCLC (both obtained from Dr. Adi Gazdar, UT Southwestern, Dallas, Tex.), HT29 colon adenocarcinoma (American Type Culture Collection), and L540CY Hodgkin's lymphoma (obtained from Professor V. Diehl, Cologne, Germany) were grown as xenografts in CB17 SCID mice (Charles River, Wilmington, Mass.).
(§2) Tumors were snap frozen in liquid nitrogen and stored at −70° C. Frozen samples of tumor specimens from patients were obtained from the National Cancer Institute Cooperative Human Tissue Network (Southern Division, Birmingham, Ala.). Immunohistochemistry was performed as described by Burrows et al. (1995).

[2] = test system: tumor sections (endothelium, connective tissue, tumor cell); test: Immunohistochemistry on frozen tumor sections (reactivity pattern); type: binding; design: key: EC = endothelium; CT = connective tissue; TC = tumor cell; NR = no reaction; details: acetone fixed frozen sections; 2C3 and 12D7 at 20 μg/ml, others 5-10 μg/ml
Protocol: as §1
as §2, with “(1995). […]” for “(1995).”
The immunohistochemical reactivity of 3E7, GV39M, and 11B5 on NCI-H358 human NSCLC xenografts was determined and compared with control antibodies (an IgG of irrelevant specificity; A-20, a rabbit anti-VEGF antibody; and MECA 32, a rat anti-mouse endothelial cell antibody). […]

VEGF = biological target: T1, VEGF (Homo sapiens, UniProt P15692); test: Competition ELISA (epitope groups); type: binding
T1 sequence (P15692 27-191 isoform P15692-4): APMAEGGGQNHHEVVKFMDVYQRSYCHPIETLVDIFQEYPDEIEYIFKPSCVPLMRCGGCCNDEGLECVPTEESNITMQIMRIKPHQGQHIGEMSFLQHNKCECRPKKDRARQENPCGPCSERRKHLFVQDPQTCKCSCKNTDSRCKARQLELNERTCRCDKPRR
Protocol: Competition ELISA studies were performed by first labeling the antibodies with peroxidase according to the manufacturer's instructions (EZ-Link Activated Peroxidase, Pierce). […] Approximately 0.5-2.0 μg/ml of peroxidase labeled test antibody was incubated on the plate in the presence of either buffer alone, an irrelevant IgG, or the other anti-VEGF competing antibodies in a 10-100 fold excess.
The assay was done in triplicate at least twice for each combination of labeled and competitor antibody. Two antibodies were considered to be in the same epitope group if they cross-blocked each other's binding by greater than 80%.

NCI-H358 NSCLC = test: In vivo tumor growth inhibition, newly implanted NCI-H358; design: species or system nu/nu mice
Protocol: FIG. 3A and FIG. 3B. […] FIG. 3A: 1×10^7 NCI-H358 NSCLC cells were injected subcutaneously into nu/nu mice on day 0. FIG. 3B: 5×10^6 A673 rhabdomyosarcoma cells were injected subcutaneously into nu/nu mice on day 0. Mice were injected i.p. with the indicated IgG on day 1 and 2 times/week thereafter. […] Tumors were measured 2-3 times per week. Mean and standard error is shown for the duration of the study in FIG. 3A, while data for the last day of the study (day 26) is shown in FIG. 3B.
Nu/nu mice were injected subcutaneously with either 1×10^7 NCI-H358 NSCLC cells or 5×10^6 A673 rhabdomyosarcoma cells on day 0. […] The tumors were then measured twice per wk for a period of approximately six wk for the NCI-H358 bearing mice and four wk for the A673 bearing mice. Tumor volume was calculated according to the formula: volume=L×W×H, where L=length, W=width, H=height.

[3] = test system: LS174T colon adenocarcinoma; test: Treatment of established LS174T tumors; design: species or system mice; details: mouse, in vivo
HT1080 fibrosarcoma = test: Treatment of established HT1080 xenografts (FIG. 5B); type: in vivo, nu/nu mice; details: 100 μg every two days
Protocol: FIG. 5A and FIG. 5B. […] Treatments (T) were 100 μg of the IgG given i.p., except for the initial treatment that consisted of 500 μg of the IgG given i.v. Mean tumor volume along with the SEM is shown. At the end of the study (day 116), the mice were sacrificed and the tumors dissected out and weighed. […] The mice were treated every other day as indicated (T). […] Mean tumor volume along with the SE is shown.
Male nu/nu mice bearing subcutaneous NCI-H358 tumors or HT1080 fibrosarcoma 200-400 mm^3 in size were injected i.p. with test or control antibodies. The NCI-H358 bearing mice were treated with 100 μg of antibodies per injection three times a week during the first week and twice a week during the second and third week. The mice were then switched to 50 μg per injection every five days. The HT1080 bearing mice were treated with 100 μg of the indicated antibody or saline every other day throughout the duration of the study. In both studies, mice were sacrificed when their tumors reached 2500 mm^3 in size or earlier if tumors began to ulcerate.

VEGFR1 (Flt-1/Fc) = test: ELISA of VEGF binding to VEGFR1-coated wells
Protocol: FIG. 2. […] The plate was then incubated with rabbit anti-VEGF (A-20, Santa Cruz Biotechnology, Inc.) at 1 μg/ml and developed using a peroxidase conjugated goat anti-rabbit antibody. Assays were performed in triplicate. Mean percent binding in the absence of antibody is shown, together with the standard deviation.
The assay was also performed by coating wells of a microtiter plate with either control or test IgG.

[4] = test system: human tumor xenografts (NCI-H358, NCI-H460, HT29, L540); test: Immunohistochemistry, endothelial cell staining, human tumor xenografts; type: binding, human tumors grown in SCID mice; design: key: −, negative; +/−, very weak; 1+, weak; 2+, moderate; 3+, strong; 4+, very strong; details: acetone fixed frozen sections
Protocol: as §1, §2

Question: How did the “Endothelial Cell Staining, Guinea Pig Tumor (Line 10)” value [1] turn out when “2C3: anti-VEGF monoclonal antibody, IgG2a, k, produced by hybridoma ATCC PTA 1595; blocks VEGF binding to VEGFR2 but not VEGFR1 [Clone 2C3]” was run?
Answer: −

Question: And the “Reactivity (immunohistochemical pattern on tumor sections)” value [2]?
Answer: NR

Question: What about the “Cross-reactivity of 2C3 and A4.6.1 in competition studies” value (VEGF) of the same substance?
Answer: not cross-reactive

Question: What about the “Epitope Group” value (VEGF; determined through competitive ELISA) of the same substance?
Answer: 4

Question: What about the “Tumor growth retardation in the NCI-H358 tumor model at the lower dose” value (NCI-H358 NSCLC; 10 μg dose) of the same substance?
Answer: less marked

Question: What about the “Final tumor volume, NCI-H358” value (NCI-H358 NSCLC; 100 μg i.p. 2 times per wk from day 1, controls approximately 1000 mm^3) of the same substance?
Answer: approximately 150 mm^3

Question: What about the “Effect on growth of established LS174T tumors” value [3] of the same substance?
Answer: significantly slowed the growth

Question: What about the “Effect on growth of HT1080 tumors” value (HT1080 fibrosarcoma) of the same substance?
Answer: arrested the growth of the tumors

Question: And the “Blocks VEGF from binding to VEGFR1” value (VEGFR1 (Flt-1/Fc))?
Answer: No

Question: What about the “Endothelial Cell Staining, Xenograft (various)” value [4] of the same substance?
Answer: −
